What was measured:
Type in all cases: cell-based
KM12 = experiment: NCI 60 cell assay, colon KM12; conditions: Homo sapiens, 48 h, drug exposure two days, SRB endpoint, read-out: GI-50 value
Protocol: (§1) Samples were tested in the standard National Cancer Institute 60-cell line protocol. First, they were tested against all 60 cell lines in a single final concentration of 10 micromolar. Then, they were separately tested in five 10-fold dilutions. The drug exposure was two days, with an SRB endpoint.

HS 578T = experiment: NCI 60 cell assay, breast HS 578T; conditions: Homo sapiens, 48 h; HS 578T (breast); drug exposure two days, SRB endpoint; read-out: GI-50 value
Protocol: as §1

DU-145 = experiment: NCI 60 cell assay, prostate DU-145; conditions: Homo sapiens, 48 h; DU-145 (prostate); drug exposure two days, SRB endpoint; read-out: GI-50 value
Protocol: as §1

LOX IMVI = experiment: NCI 60 cell assay, melanoma LOX IMVI; conditions: Homo sapiens, 48 h, drug exposure two days, SRB endpoint, read-out: GI-50 value
Protocol: as §1

HOP-62 = experiment: NCI 60 cell assay, NSCLC HOP-62; conditions: Homo sapiens, 48 h; HOP-62 (NSCLC); drug exposure two days, SRB endpoint; read-out: GI-50 value
Protocol: as §1

MALME-3M = experiment: NCI 60 cell assay, melanoma MALME-3M; conditions: Homo sapiens, 48 h; MALME-3M (melanoma); drug exposure two days, SRB endpoint; read-out: GI-50 value
Protocol: as §1

NCI-H322M = experiment: NCI 60 cell assay, NSCLC NCI-H322M; conditions: Homo sapiens, 48 h, drug exposure two days, SRB endpoint, read-out: GI-50 value
Protocol: as §1

A498 = experiment: NCI 60 cell assay, renal A498; conditions: Homo sapiens, 48 h, drug exposure two days, SRB endpoint, read-out: GI-50 value
Protocol: as §1

SF-539 = experiment: NCI 60 cell assay, CNS SF-539; conditions: Homo sapiens, 48 h; SF-539 (CNS); drug exposure two days, SRB endpoint; read-out: GI-50 value
Protocol: as §1

HL-60(TB) = experiment: NCI 60 cell assay, leukemia HL-60(TB); conditions: Homo sapiens, 48 h; HL-60(TB) (leukemia); drug exposure two days, SRB endpoint; read-out: GI-50 value
Protocol: as §1

NCI/ADR-RES = experiment: NCI 60 cell assay, ovarian NCI/ADR-RES; conditions: Homo sapiens, 48 h, drug exposure two days, SRB endpoint, read-out: GI-50 value
Protocol: as §1

MDA-MB-231/ATCC = experiment: NCI 60 cell assay, breast MDA-MB-231/ATCC; conditions: Homo sapiens, 48 h; MDA-MB-231/ATCC (breast); drug exposure two days, SRB endpoint; read-out: GI-50 value
Protocol: as §1

MDA-MB-468 = experiment: NCI 60 cell assay, breast MDA-MB-468; conditions: Homo sapiens, 48 h; MDA-MB-468 (breast); drug exposure two days, SRB endpoint; read-out: GI-50 value
Protocol: as §1

NCI-H23 = experiment: NCI 60 cell assay, NSCLC NCI-H23; conditions: Homo sapiens, 48 h, drug exposure two days, SRB endpoint, read-out: GI-50 value
Protocol: as §1

NCI-H460 = experiment: NCI 60 cell assay, NSCLC NCI-H460; conditions: Homo sapiens, 48 h, drug exposure two days, SRB endpoint, read-out: GI-50 value
Protocol: as §1

COLO 205 = experiment: NCI 60 cell assay, colon COLO 205; conditions: Homo sapiens, 48 h; COLO 205 (colon); drug exposure two days, SRB endpoint; read-out: GI-50 value
Protocol: as §1

MCF7 = experiment: NCI 60 cell assay, breast MCF7; conditions: Homo sapiens, 48 h, drug exposure two days, SRB endpoint, read-out: GI-50 value
Protocol: as §1

M14 = experiment: NCI 60 cell assay, melanoma M14; conditions: Homo sapiens, 48 h, drug exposure two days, SRB endpoint, read-out: GI-50 value
Protocol: as §1

NCI-H226 = experiment: NCI 60 cell assay, NSCLC NCI-H226; conditions: Homo sapiens, 48 h, drug exposure two days, SRB endpoint, read-out: GI-50 value
Protocol: as §1

SN12C = experiment: NCI 60 cell assay, renal SN12C; conditions: Homo sapiens, 48 h, drug exposure two days, SRB endpoint, read-out: GI-50 value
Protocol: as §1

SK-OV-3 = experiment: NCI 60 cell assay, ovarian SK-OV-3; conditions: Homo sapiens, 48 h; SK-OV-3 (ovarian); drug exposure two days, SRB endpoint; read-out: GI-50 value
Protocol: as §1

MDA-MB-435 = experiment: NCI 60 cell assay, melanoma MDA-MB-435; conditions: Homo sapiens, 48 h; MDA-MB-435 (melanoma); drug exposure two days, SRB endpoint; read-out: GI-50 value
Protocol: as §1

SR = experiment: NCI 60 cell assay, leukemia SR; conditions: Homo sapiens, 48 h, drug exposure two days, SRB endpoint, read-out: GI-50 value
Protocol: as §1

HT29 = experiment: NCI 60 cell assay, colon HT29; conditions: Homo sapiens, HT-29, 48 h, drug exposure two days, SRB endpoint, read-out: GI-50 value
Protocol: as §1

SW-620 = experiment: NCI 60 cell assay, colon SW-620; conditions: Homo sapiens, 48 h; SW-620 (colon); drug exposure two days, SRB endpoint; read-out: GI-50 value
Protocol: as §1

BT-549 = experiment: NCI 60 cell assay, breast BT-549; conditions: Homo sapiens, 48 h; BT-549 (breast); drug exposure two days, SRB endpoint; read-out: GI-50 value
Protocol: as §1

RPMI-8226 = experiment: NCI 60 cell assay, leukemia RPMI-8226; conditions: Homo sapiens, 48 h; RPMI-8226 (leukemia); drug exposure two days, SRB endpoint; read-out: GI-50 value
Protocol: as §1

OVCAR-3 = experiment: NCI 60 cell assay, ovarian OVCAR-3; conditions: Homo sapiens, 48 h; OVCAR-3 (ovarian); drug exposure two days, SRB endpoint; read-out: GI-50 value
Protocol: as §1

HCC-2998 = experiment: NCI 60 cell assay, colon HCC-2998; conditions: Homo sapiens, 48 h; HCC-2998 (colon); drug exposure two days, SRB endpoint; read-out: GI-50 value
Protocol: as §1

HOP-92 = experiment: NCI 60 cell assay, NSCLC HOP-92; conditions: Homo sapiens, 48 h; HOP-92 (NSCLC); drug exposure two days, SRB endpoint; read-out: GI-50 value
Protocol: as §1

HCT-116 = experiment: NCI 60 cell assay, colon HCT-116; conditions: Homo sapiens, 48 h; HCT-116 (colon); drug exposure two days, SRB endpoint; read-out: GI-50 value
Protocol: as §1

T-47D = experiment: NCI 60 cell assay, breast T-47D; conditions: Homo sapiens, T47D, 48 h; T-47D (breast); drug exposure two days, SRB endpoint; read-out: GI-50 value
Protocol: as §1

CCRF-CEM = experiment: NCI 60 cell assay, leukemia CCRF-CEM; conditions: Homo sapiens, 48 h, drug exposure two days, SRB endpoint, read-out: GI-50 value
Protocol: as §1

IGROV1 = experiment: NCI 60 cell assay, ovarian IGROV1; conditions: Homo sapiens, IGROV-1, 48 h, drug exposure two days, SRB endpoint, read-out: GI-50 value
Protocol: as §1

Compound | GI50 (KM12) [µM] | GI50 (HS 578T) [µM] | GI50 (DU-145) [µM] | GI50 (LOX IMVI) [µM] | GI50 (HOP-62) [µM] | GI50 (MALME-3M) [µM] | GI50 (NCI-H322M) [µM] | GI50 (A498) [µM] | GI50 (SF-539) [µM] | GI50 (HL-60(TB)) [µM] | GI50 (NCI/ADR-RES) [µM] | GI50 (MDA-MB-231/ATCC) [µM] | GI50 (MDA-MB-468) [µM] | GI50 (NCI-H23) [µM] | GI50 (NCI-H460) [µM] | GI50 (COLO 205) [µM] | GI50 (MCF7) [µM] | GI50 (M14) [µM] | GI50 (NCI-H226) [µM] | GI50 (SN12C) [µM] | also measured
CC1=C2[C@@H](CC1)[C@]1(C)O[C@@](C(C)C)(C[C@H]1OC(=O)[C@H](C)O)[C@H]2OC(=O)C=Cc1ccccc1 [(Il), (3aR,4S,5R,7R,8S)-5-(((S)-2-hydroxypropanoyl)oxy)-7-isopropyl-1,4-dimethyl-2,3,3a,4,5,6,7,8-octahydro-4,7-epoxyazulen-8-yl cinnamate] | 16 | 0.098 | 17 | 15 | 15 | 15 | 19 | 0.21 | 15 | 11 | 0.42 | 15 | 11 | 14 | 15 | 17 | 10 | 13 | 11 | 0.21 | GI50 (SK-OV-3): 15 µM; GI50 (MDA-MB-435): 15 µM; GI50 (SR): 13 µM; GI50 (HT29): 14 µM; GI50 (SW-620): 15 µM; GI50 (BT-549): 1.4 µM; GI50 (RPMI-8226): 8 µM; GI50 (OVCAR-3): 13 µM; GI50 (HCC-2998): 14 µM; GI50 (HOP-92): 6 µM; GI50 (HCT-116): 12 µM; GI50 (T-47D): 7.2 µM; GI50 (CCRF-CEM): 16 µM; GI50 (IGROV1): 19 µM
CC(=O)O[C@@H]1C[C@]2(C(C)C)O[C@@]1(C)[C@@H]1CCC(C)=C1[C@@H]2OC(=O)C=Cc1ccccc1 [(Im), (3aR,4S,5R,7R,8S)-5-acetoxy-7-isopropyl-1,4-dimethyl-2,3,3a,4,5,6,7,8-octahydro-4,7-epoxyazulen-8-yl cinnamate] | 40 | 4.8 | 71 | 30 | 89 | 39 | 100 | 2.2 | 100 | 25 | 23 | 49 | 24 | 35 | 31 | 32 | 19 | 40 | 29 | 10 | GI50 (SK-OV-3): 71 µM; GI50 (MDA-MB-435): 39 µM; GI50 (SR): 32 µM; GI50 (HT29): 31 µM; GI50 (SW-620): 39 µM; GI50 (BT-549): 51 µM; GI50 (RPMI-8226): 10 µM; GI50 (OVCAR-3): 22 µM; GI50 (HCC-2998): 68 µM; GI50 (HCT-116): 16 µM; GI50 (T-47D): 20 µM; GI50 (CCRF-CEM): 32 µM; GI50 (IGROV1): 100 µM
CC1=C2[C@@H](CC1)[C@]1(C)O[C@@](C3CCCCC3)(C[C@H]1OC(=O)CO)[C@H]2OC(=O)C=Cc1ccccc1 [(Iq), (3aR,4S,5R,7R,8S)-7-cyclohexyl-5-(2-hydroxyacetoxy)-1,4-dimethyl-2,3,3a,4,5,6,7,8-octahydro-4,7-epoxyazulen-8-yl cinnamate] | 14 | 0.03 | 13 | 14 | 14 | 17 | 17 | 0.021 | 17 | 15 | 0.25 | 18 | 12 | 14 | 13 | 15 | 4.5 | 15 | 12 | 0.06 | GI50 (SK-OV-3): 13 µM; GI50 (MDA-MB-435): 15 µM; GI50 (SR): 9 µM; GI50 (HT29): 12 µM; GI50 (SW-620): 14 µM; GI50 (BT-549): 0.5 µM; GI50 (RPMI-8226): 10 µM; GI50 (OVCAR-3): 13 µM; GI50 (HCC-2998): 13 µM; GI50 (HOP-92): 6 µM; GI50 (HCT-116): 9 µM; GI50 (T-47D): 9.1 µM; GI50 (CCRF-CEM): 15 µM; GI50 (IGROV1): 19 µM
CC1=C2[C@@H](CC1)[C@]1(C)O[C@@](c3ccccc3)(C[C@H]1OC(=O)CO)[C@H]2OC(=O)C=Cc1ccccc1 [(Ir), (3aR,4S,5R,7R,8S)-5-(2-hydroxyacetoxy)-1,4-dimethyl-7-phenyl-2,3,3a,4,5,6,7,8-octahydro-4,7-epoxyazulen-8-yl cinnamate] | 16 | 0.033 | 17 | 17 | 18 | 20 | 22 | 0.089 | 18 | 16 | 0.34 | 19 | 15 | 17 | 15 | 15 | 10 | 17 | 16 | 11 | GI50 (SK-OV-3): 19 µM; GI50 (MDA-MB-435): 17 µM; GI50 (SR): 11 µM; GI50 (HT29): 16 µM; GI50 (SW-620): 21 µM; GI50 (BT-549): 0.71 µM; GI50 (RPMI-8226): 13 µM; GI50 (OVCAR-3): 15 µM; GI50 (HCC-2998): 15 µM; GI50 (HOP-92): 14 µM; GI50 (HCT-116): 15 µM; GI50 (T-47D): 11 µM; GI50 (CCRF-CEM): 20 µM; GI50 (IGROV1): 24 µM
CC1=C2[C@@H](CC1)[C@]1(C)O[C@@](C(C)C)(C[C@H]1OC(=O)CO)[C@H]2OC(=O)/C=C/c1ccccc1 [Compound (Ih)] | 40 | 0.015 | 41 | 42 | 36 | 43 | 43 | 0.034 | 40 | 35 | 0.13 | 39 | 33 | 42 | 37 | 44 | 32 | 43 | 35 | 20 | GI50 (SK-OV-3): 44 µM; GI50 (MDA-MB-435): 43 µM; GI50 (SR): 32 µM; GI50 (HT29): 39 µM; GI50 (SW-620): 40 µM; GI50 (BT-549): 0.14 µM; GI50 (RPMI-8226): 27 µM; GI50 (OVCAR-3): 39 µM; GI50 (HCC-2998): 100 µM; GI50 (HOP-92): 100 µM; GI50 (HCT-116): 33 µM; GI50 (T-47D): 27 µM; GI50 (CCRF-CEM): 42 µM; GI50 (IGROV1): 46 µM
